Consider 15 compounds from ChEMBL document CHEMBL1136829, “Adenosine kinase inhibitors: polar 7-substitutent of pyridopyrimidine derivatives improving their locomotor selectivity” (Bioorg Med Chem Lett, 2003).

Each structure is given as a SMILES string.

In assay [1] the target is T1, Adenosine kinase (Homo sapiens, UniProt P55263). Put plainly: Inhibitory concentration against adenosine kinase was determined in cell assay.
Assay [2] deals with T1, Adenosine kinase. Put plainly: Inhibitory concentration against adenosine kinase was determined.
The nature of assay [3]: Effective dose to reduce locomotor side effects in animals was determined. In kind it is functional.
Assay [4] is filed under the species Rattus norvegicus. Put plainly: Effective dose to reduce pain in carregenin induced thermal hyperalgesia assay in rat was determined. It counts as functional.
Assay [5] is described as follows: Percent inhibition of the locomotor side effects in animals at 30 umol/kg po was determined. In kind it is functional.
Assay [6] can be described thus: Percent inhibition of the locomotor side effects in animals at 100 umol/kg po was determined. It counts as functional.

T1 sequence (P55263 whole entry): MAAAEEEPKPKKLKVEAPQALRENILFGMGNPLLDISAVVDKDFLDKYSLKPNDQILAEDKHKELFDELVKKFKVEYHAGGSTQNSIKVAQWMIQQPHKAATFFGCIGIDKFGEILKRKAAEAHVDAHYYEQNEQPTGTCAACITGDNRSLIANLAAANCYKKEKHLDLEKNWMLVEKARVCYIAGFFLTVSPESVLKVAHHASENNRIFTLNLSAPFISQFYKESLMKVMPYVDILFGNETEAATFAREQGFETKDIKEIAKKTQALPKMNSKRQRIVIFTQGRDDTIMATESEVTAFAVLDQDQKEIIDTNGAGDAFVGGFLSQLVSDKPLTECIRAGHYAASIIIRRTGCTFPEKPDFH

Turning to `Nc1ncnc2nc(-c3ccc(N4CCC(COC5CCOCC5)CC4)nn3)cc(-c3cccc(Br)c3)c12`, the IC50 in assay [1] was found to be 0.0173 µM; in assay [2], 0.0028 µM. The ED50 in assay [3] and in assay [4] was 5 µmol/kg throughout.
As to `CON=C1CCN(c2ccc(-c3cc(-c4cccc(Br)c4)c4c(N)ncnc4n3)nn2)CC1`, the IC50 is 0.0744 µM in assay [1] and 0.0188 µM in assay [2]. The values for the ED50 in assay [3] and in assay [4] were 6 µmol/kg and 13 µmol/kg, respectively.
The matching figures for `Nc1ncnc2nc(-c3ccc(N4CCC5(CC4)COCO5)nc3)cc(-c3cccc(Br)c3)c12`: 0.378 µM, 0.0083 µM, 6 µmol/kg and 2 µmol/kg.
The matching figures for `CCO[C@H]1CN(c2ccc(-c3cc(-c4cccc(Br)c4)c4c(N)ncnc4n3)nn2)C[C@H]1OCC`: 0.0407 µM, 0.0072 µM, 25 µmol/kg and 3 µmol/kg.
On the same counts, the results for `COCCOC1CCN(c2ccc(-c3cc(-c4cccc(Br)c4)c4c(N)ncnc4n3)nn2)CC1` are 0.0819 µM, 0.0151 µM, 10 µmol/kg and 3 µmol/kg.
Consider `Nc1ncnc2nc(-c3ccc(N4CCC(=NOC5CCOCC5)CC4)nn3)cc(-c3cccc(Br)c3)c12`, for which the IC50 came to 0.052 µM in assay [1] and 0.0071 µM in assay [2]. The ED50 turned out to be 7 µmol/kg in assay [3] and 2 µmol/kg in assay [4].
Regarding `Nc1ncnc2nc(-c3ccc(N4CCC(O)(C5CCOC5=O)CC4)nc3)cc(-c3cccc(Br)c3)c12` (stereo unspecified), the inhibition in vivo at 30 µmol/kg in assay [5] is 97%. Further, the results for the IC50 in assay [1] and in assay [2] were 0.0502 µM and 0.0081 µM, respectively. The compound also gave an inhibition in vivo at 100 µmol/kg in assay [6] of 87%. Further, in assay [4], it took a dose of 4 µmol/kg to reach the 50% effect level (ED50).
`Nc1ncnc2nc(-c3ccc(N4CC5CC4CO5)nc3)cc(-c3cccc(Br)c3)c12` (stereo unspecified): the IC50 in assay [1] turned out to be 0.0195 µM; in assay [2] it was 0.0075 µM. The values for the ED50 in assay [3] and in assay [4] were 8 µmol/kg and 2 µmol/kg, respectively.
Take `Nc1ncnc2nc(-c3ccc(N4C[C@@H](O)[C@@H](O)C4)nc3)cc(-c3cccc(Br)c3)c12`: the inhibition in vivo at 30 µmol/kg in assay [5] is 73%. Besides, the values for the IC50 in assay [1] and in assay [2] were 0.13 µM and 0.0065 µM, respectively. Further, the ED50 in assay [4] was found to be 2 µmol/kg.
Regarding `CCOC1CCN(c2ccc(-c3cc(-c4cccc(Br)c4)c4c(N)ncnc4n3)nn2)CC1`, the IC50 amounted to 0.0517 µM in assay [1] and 0.0104 µM in assay [2]. For the same compound, the 50% effective dose (ED50) in assay [3] was 20 µmol/kg; in assay [4] it was 7 µmol/kg.
On the same counts, the results for `Nc1ncnc2nc(-c3ccc(N4CCC(CCOC5CCOCC5)CC4)nn3)cc(-c3cccc(Br)c3)c12` are 0.0895 µM, 0.0228 µM, 9 µmol/kg and 30 µmol/kg.
In assay [5], `N#C[C@H]1CN(c2ccc(-c3cc(-c4cccc(Br)c4)c4c(N)ncnc4n3)cn2)C[C@H]1O` had an inhibition in vivo at 30 µmol/kg of 91%. Besides, the half-maximal inhibitory concentration (IC50) in assay [1] was determined as 0.496 µM; in assay [2], 0.0075 µM. This compound had an ED50 in assay [4] of 4 µmol/kg.
`Nc1ncnc2nc(-c3ccc(N4CCC[C@H]4CO)nn3)cc(-c3cccc(Br)c3)c12`: in assay [5], the inhibition in vivo at 30 µmol/kg was 98%. In addition, the figures for the IC50 in assay [1] and in assay [2] were 0.154 µM and 0.0162 µM, respectively. In assay [6], this compound had an inhibition in vivo at 100 µmol/kg of 75%. Besides, in assay [4], it took a dose of 10 µmol/kg to reach the 50% effect level (ED50).
As to `C/C(=N/OC1CCOCC1)C1(O)CCN(c2ccc(-c3cc(-c4cccc(Br)c4)c4c(N)ncnc4n3)cn2)CC1`, the IC50 in assay [1] was found to be 0.0437 µM; in assay [2] it was 0.0317 µM. Besides, the ED50 in assay [3] came out at 30 µmol/kg; in assay [4], 5 µmol/kg.
As for `Nc1ncnc2nc(-c3ccc(N4CCC(=NOC5CCOCC5)CC4)nc3)cc(-c3cccc(Br)c3)c12`, inhibition in assay [2] was half-maximal at 0.01 µM (IC50). Further, the ED50 in assay [3] was 10 µmol/kg; in assay [4], 2 µmol/kg.
